Results taken from patent US8288541B2, “Piperazine amide derivatives” (Hoffmann-La Roche Inc., priority 2007, dated 2012).

Key:
LXR beta = biological target: T1, LXR beta (Homo sapiens, UniProt P55055); assay: Radioligand binding assay (SPA), LXR beta LBD; details: read-out: LXRbeta Binding IC50
T1 construct: human LXR beta (aa 155 to 460); unnamed tag ('tagged versions'); made in house; host or cells: E. coli BL21 (pLysS)
T1 sequence (P55055 155-460): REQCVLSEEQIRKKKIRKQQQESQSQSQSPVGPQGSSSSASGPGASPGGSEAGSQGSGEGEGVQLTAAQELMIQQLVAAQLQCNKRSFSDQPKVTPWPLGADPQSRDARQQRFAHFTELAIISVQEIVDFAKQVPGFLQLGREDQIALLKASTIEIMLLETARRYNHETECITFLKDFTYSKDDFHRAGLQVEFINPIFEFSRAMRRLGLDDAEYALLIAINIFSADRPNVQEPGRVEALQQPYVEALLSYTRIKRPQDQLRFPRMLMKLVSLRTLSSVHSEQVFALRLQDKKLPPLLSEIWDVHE
Protocol: (§1) The following tests were carried out in order to determine the activity of the compounds of the present invention. Background information on the performed assays can be found in: Nichols J S et al. “Development of a scintillation proximity assay for peroxisome proliferator-activated receptor gamma ligand binding domain”, Anal Biochem. 1998, 257: 112-119.
(§2) Mammalian expression vectors were constructed to express full-length human LXR alpha and LXR beta. Bacterial expression vectors were constructed to produce tagged versions of the ligand binding domains (LBD) of human LXR alpha (aa 164 to 447) and human LXR beta (aa 155 to 460). To accomplish this, the portions of the sequences encoding the LBDs were amplified from the full-length clones by PCR and then subcloned into the plasmid vectors. Final clones were verified by DNA sequence analysis (Willy et al., Genes Dev. 1995, 9:1033-45; Song et al., Proc Natl Acad Sci USA. 1994, 91:10809-13).
(§3) Induction, expression, and purification of LBD proteins were performed in E. coli strain BL21 (pLysS) cells by standard methods (Ref: Current Protocols in Molecular Biology, Wiley Press, edited by Ausubel et al).
(§4) Radioligand Binding Assay
(§5) LXR alpha and LXR beta receptor binding were assayed in buffer consisting of 50 mM HEPES, pH 7.4, 10 mM NaCl, 5 mM MgCl2. For each 96-well reaction, 500 ng of LXRα-LBD or 700 ng of LXR beta-LBD proteins were bound to 80 μg or 40 μg SPA beads respectively, in a final volume of 50 μl by shaking. The resulting slurry was incubated for 1 h at RT and centrifuged for 2 min at 1300×g. The supernatant containing unbound protein was removed, and the semi-dry pellet containing the receptor-coated beads was re-suspended in 50 μl of buffer. […] All binding assays were performed in 96-well plates and the amount of bound ligand was measured on a Packard TopCount using OptiPlates (Packard). Dose response curves were measured within a range of concentration from 10^−10 M to 10^−4 M.

LXR alpha = biological target: T2, LXR alpha (Homo sapiens, UniProt Q13133); assay: Radioligand binding assay (SPA), LXR alpha LBD; details: LXRα-LBD, read-out: LXRalpha Binding IC50
T2 construct: human LXR alpha (aa 164 to 447); unnamed tag ('tagged versions'); made in house; host or cells: E. coli BL21 (pLysS)
T2 sequence (Q13133 164-447): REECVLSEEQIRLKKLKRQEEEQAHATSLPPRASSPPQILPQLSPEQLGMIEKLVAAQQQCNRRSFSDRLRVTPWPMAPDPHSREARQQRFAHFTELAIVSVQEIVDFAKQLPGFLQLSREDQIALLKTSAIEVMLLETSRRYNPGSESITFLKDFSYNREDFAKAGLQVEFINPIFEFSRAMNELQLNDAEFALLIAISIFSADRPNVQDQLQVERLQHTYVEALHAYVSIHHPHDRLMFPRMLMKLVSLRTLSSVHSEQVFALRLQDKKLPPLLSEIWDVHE
Protocol: as §1, §2, §3, §4, §5

| melting point | IC50 (LXR beta) | IC50 (LXR alpha) | Compound |
| --- | --- | --- | --- |
| 192 °C |  |  | COc1cccc(S(=O)(=O)N2CC[C@H](c3ccccc3)[C@H](C(=O)N3CCN(c4cc(C)ccc4C)CC3)C2)c1 (relative stereo) [Example 42, Cis-[4-(2,5-Dimethyl-phenyl)-piperazin-1-yl]-[-1-(3-methoxy-benzenesulfonyl)-4-phenyl-piperidin-3-yl]-methanone] |
|  | 2800 nM | 15.6 µM | Cc1ccc(Cl)cc1N1CCN(C(=O)[C@@H]2CN(S(C)(=O)=O)CC[C@@H]2c2ccc(F)cc2F)CC1 (single isomer, unassigned) [Example 87, [4-(5-Chloro-2-methyl-phenyl)-piperazin-1-yl]-[(3S,4S) or (3R,4R)-4-(2,4-difluoro-phenyl)-1-methanesulfonyl-piperidin-3-yl]-methanone] |
|  | 720 nM | 18 µM | Cc1cc(F)ccc1N1CCN(S(=O)(=O)c2cccc(Cl)c2)CC1C(=O)N1CCN(c2cc(Cl)ccc2Cl)CC1 (stereo not shown) [Example 4, [4-(3-Chloro-benzenesulfonyl)-1-(4-fluoro-2-methyl-phenyl)-piperazin-2-yl]-[4-(2,5-dichloro-phenyl)-piperazin-1-yl]-methanone] |
|  | 770 nM | 4.1 µM | COc1cccc(S(=O)(=O)N2CCN(c3ccccc3)C(C(=O)N3CCN(c4cc(C)ccc4C)CC3)C2)c1 (stereo not shown) [Example 8, [4-(2,5-Dimethyl-phenyl)-piperazin-1-yl]-[4-(3-methoxy-benzenesulfonyl)-1-phenyl-piperazin-2-yl]-methanone] |
